From patent US7964219B2, “Pharmaceutical compositions for controlled release delivery of biologically active compounds” (QPS, LLC, priority 2004, dated 2011)

Columns and labels:
[1] = Stability of octreotide in injectable formulations at room temperature by HPLC (Example 12)
Description: Injectable formulations of octreotide were prepared by dispersing octreotide in polymer solution in an appropriate solvent. […] The mixture was thoroughly mixed until a uniform suspension or solution was obtained. Six injectable formulations were prepared as shown below.
The stability of octreotide in the above injectable formulations at room temperature was monitored by HPLC and the results are shown in the table below.

[2] = Release of octreotide in vivo in rats by implant retrieval (Example 14); set-up: species or system Sprague-Dawley male rats; conditions: PLGA/NMP vehicle, after 24 h
Description: Poly(DL-lactide-co-glycolide) (PLGA) was dissolved in N-methyl-2-pyrrolidone (NMP), or methoxypolyethylene glycohol (mPEG) to give a 40% solution by weight. The injectable formulations were prepared by dispersing octreotide phytate or acetate. The mixture was thoroughly mixed until a uniform suspension or solution was obtained. These formulations of octreotide (roughly about 100 uL) were administered subcutaneously in the back of the Sprague-Dawley male rats. The release of octreotide was determined by implant retrieval at predefined time intervals (30 min for group G and 24 h for groups A through F) after ministration and analysis of the octreotide remaining in the implant.

[3] = Stability of octreotide in injectable formulations at room temperature by HPLC (Example 13); assay type: physicochemical; conditions: PLGA/NMP vehicle, after 24 h
Description: The injectable polymer solutions were prepared by dispersing octreotide phytate or acetate or citrate. […] Injectable formulations were prepared as shown below.
It appears that both salt forms of octreotide and the solvent affect the stability of octreotide. In terms of the stability of octreotide, mPEG is preferred than NMP and phytate complex form of octreotide is preferred than acetate and citrate salt of octreotide.

## C[C@@H](O)[C@@H]1NC(=O)[C@H](CCCCN)NC(=O)[C@@H](Cc2c[nH]c3ccccc23)NC(=O)[C@H](Cc2ccccc2)NC(=O)[C@@H](NC(=O)[C@H](N)Cc2ccccc2)CSSC[C@@H](C(=O)N[C@H](CO)[C@@H](C)O)NC1=O [octreotide acetate]
[1]; PLGA solution in NMP, room temperature
  octreotide degraded or acylated: ~100%
[1]; after three days at room temperature
  Stability of octreotide (degraded or reacted): significant amount of the octreotide was degraded or reacted

## C[C@@H](O)[C@@H]1NC(=O)[C@H](CCCCN)NC(=O)[C@@H](Cc2c[nH]c3ccccc23)NC(=O)[C@H](Cc2ccccc2)NC(=O)[C@@H](NC(=O)[C@H](N)Cc2ccccc2)CSSC[C@@H](C(=O)N[C@H](CO)[C@@H](C)O)NC1=O [octreotide]
[2]
  degradation/reaction of octreotide in vivo: 30%
[3]
  degradation/reaction of octreotide in vitro: 85%
